Measurements taken from publication PMC9065035, “Structural basis for the synthesis of the core 1 structure by C1GalT1” (Nature Communications, 2022).

What was measured:
DmC1GalT1^T43-Q388 [1] = target: T1, DmC1GalT1^T43-Q388 (Drosophila melanogaster, UniProt Q7K237); test: Isothermal titration calorimetry (ITC); type: binding; design: made in house
Protocol: ITC was used to characterize the interaction of DmC1GalT1^T43-Q388 with UDP, APDT*RP with and without UDP, APDTRP with UDP, and P4/P7 with and without UDP. All experiments were carried out in an Auto-iTC200 (Microcal, GE Healthcare) at 20 °C. The titration of DmC1GalT1^T43-Q388 with UDP was carried out at 100 μM of the enzyme with 800 μM UDP in 25 mM TRIS pH 7.5, 150 mM NaCl and 1 mM MnCl2. The titrations with APDT*RP and P4/P7 in the absence of UDP were carried out at 60 μM of the enzyme with 2 mM P4/P7 in 25 mM TRIS pH 7.5, 150 mM NaCl and 1 mM MnCl2. To determine the Kds for APDT*RP, APDTRP and P4/P7 under an excess of UDP, the experiments were made in 25 mM TRIS pH 7.5, 150 mM NaCl, 1 mM UDP and 1 mM MnCl2. The concentration of the enzyme was 60 μM for the titrations of APDT*RP and APDTRP and 50 μM for the titration with P4/P7. The concentration of the (glyco)peptides was 2 mM in all the ITC experiments. The experiments were performed in duplicate. Data integration, correction and analysis were carried out in Origin 7 (Microcal). The data were fit to a one-site equilibrium-binding model. Stoichiometry (n) of binding in all cases was ~1:1 except for UDP whose n = 0.4.

DmC1GalT1^T43-Q388 [2] = target: T1, DmC1GalT1^T43-Q388; test: STD NMR experiments; type: binding; design: made in house; conditions: presence of UDP ([…]) and 150 µM MnCl2; 20 µM enzyme, 710 µM ligand
Protocol: STD NMR experiments were performed using a 1:35 molar ratio, defined by 20 μM DmC1GalT1^T43-Q388 and 710 μM ligands (α-O-methyl-GalNAc, and (glyco)peptides), and 25 mM Tris(D11)-DCl buffer, pD 7.5, with 150 mM NaCl and 150 µM MnCl2 in D2O. […] In the presence of 150 µM MnCl2, strong paramagnetic relaxation enhancements are observed for UDP, which prevents the observation of UDP proton signals in the NMR spectra. […] STD NMR spectra (stddiffesgp pulse sequence from Bruker pulse program library) were acquired with 1728 scans and 64 K data points, in a spectral window of 12335.53 Hz centered at 2818 Hz. Selective saturation (on resonance) was performed by irradiating at 7 and/or −0.5 ppm (depending if the ligand contains or not aromatic residues) using a series of 40 Eburp2.1000-shaped (from Bruker shaped pulses library) 90° pulses (50 ms) for a total saturation time of 2 s, and a relaxation delay of 4 s. For the reference spectrum (off resonance), the samples were irradiated at 100 ppm. Proper control experiments were performed for each ligand in the absence of protein and residual STD signals of the methyl groups of Ala/Thr were observed. […] Protein control experiments were also accomplished using DmC1GalT1^T43-Q388 in absence of a ligand and also subtracted from STD experiment. The STD spectrum (ISTD) was obtained by subtracting the on-resonance spectrum (Ion) to the off-resonance spectrum (Ioff). The % of STD (ISTD/Ioff × 100) was estimated by comparing the intensity of the signals in the STD spectrum (ISTD) with the signal intensities of the reference spectrum (Ioff). The STD amplification factor (STDAF) was also estimated by multiplying the % STD values by the ligand excess, which in the case of our experiments was 35 for every ligand. To determine the STD-derived epitope map the relative % of STD were calculated by setting to 100% the STD signal of the proton with the highest STD intensity and calculating the others accordingly (Supplementary Tables 2–4). Some protons were not able to be assessed with accuracy due to the use of water suppression or low signal/noise ratio and display a blue circle in the STD-derived epitope maps. Moreover, the resonances overlapped on the ^1H-NMR spectrum were considered in STD estimation and are labelled as *.

DmC1GalT1^T43-Q388 [3] = target: T1, DmC1GalT1^T43-Q388; test: UDP-Glo glycosylation kinetics of DmC1GalT1 T43-Q388; conditions: 500 µM UDP-Gal
[4] = Activity of DmC1GalT1 mutants (UDP-Glo); type: biochemical, Drosophila melanogaster; conditions: 500 µM UDP-Gal, 500 µM APDT*RP
Excerpt: The DNA sequence encoding amino acid residues of the DmC1GalT1 (aa T43-Q388) was codon optimized and synthesized by GenScript (USA) for expression in HEK293 cells (GIBCO). The construct, containing at the 5′-end a recognition sequence for AgeI, and at the 3′-end a recognition sequence for KpnI, was cloned into a pHLSec plasmid that contained a sequence encoding a 6xHis tag at the 3′-end followed by a stop codon, rendering the vector pHLSec-DmC1GalT1-6His. The cloning of the construct into pHLSec was performed by GenScript. All mutants in DmC1GalT1 (R152A, Y213A, Y218A, D255A, W300A and Y325A) were generated following a standard site-directed mutagenesis protocol by GenScript using the vector pHLSec-DmC1GALT1-6His. pHLSec-DmC1GalT1-6His and all the plasmids encoding for the different mutants were transfected into HEK293 cell line as described below. For DNA amplification, all plasmids were transformed in E. coli DH5α cells and extracted with PureLink™ Expi Endotoxin-Free Giga Plasmid Purification Kit (Invitrogen) according to the manufacturer’s instructions. Cells were grown in suspension in a humidified 37 °C and 8% CO2 incubator with rotation at 125 rpm. Transfection was performed at a cell density of 2.5 × 10^6 cell/mL in fresh media F17 serum-free media (Gibco) with 2% Glutamax and 0.1% Kolliphor® P 188. For each 150 mL of culture, 450 μg of the plasmid (1 μg/μL) was mixed with 135 μL of sterilized 1.5 M NaCl. This mixture was added to each 150 mL cell culture flask and incubated for 5 min in the incubator. […] Cells were diluted 1:1 with pre-warmed media supplemented with valproic acid 24 h post-transfection to a final concentration of 2.2 mM. Then, cells were harvested 6 days post-transfection by spinning down at 300 × g for 5 min, after which the supernatants were collected and centrifuged at 4000 × g for 15 min. Supernatant was dialyzed against buffer A and loaded into a His-Trap Column (GE Healthcare). Protein was eluted with an imidazol gradient in buffer A from 10 mM up to 400 mM. Buffer exchange to buffer C was carried out using a HiPrep 26/10 Desalting Column (GE Healthcare). The isolated DmC1GalT1-His and its mutants were then loaded in HiLoad 26/60 Superdex 75 Colum (GE Healthcare), previously equilibrated with buffer C.

[5] = excess UDP (1 mM), 1 mM MnCl2, 20 °C

T1 sequence (Q7K237 43-388): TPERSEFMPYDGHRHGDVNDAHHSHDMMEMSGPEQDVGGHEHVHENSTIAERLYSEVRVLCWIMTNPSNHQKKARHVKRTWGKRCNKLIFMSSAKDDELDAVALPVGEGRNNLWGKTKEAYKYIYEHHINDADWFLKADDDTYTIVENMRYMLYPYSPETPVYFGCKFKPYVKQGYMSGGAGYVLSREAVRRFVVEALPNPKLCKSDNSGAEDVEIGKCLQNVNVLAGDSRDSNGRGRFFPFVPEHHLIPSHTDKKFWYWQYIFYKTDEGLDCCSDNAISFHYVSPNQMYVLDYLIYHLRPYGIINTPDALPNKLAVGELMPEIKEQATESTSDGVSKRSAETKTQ

For APDTRP, the Kd (DmC1GalT1^T43-Q388 [1]; excess UDP (1 mM UDP, 1 mM MnCl2), 2 mM (glyco)peptide, 50–60 µM enzyme, 25 mM TRIS pH 7.5, 150 mM NaCl, 20 °C, one-site fit ± fit error, n = 2) was “Not measurable under our conditions”, the “-TΔS” value (DmC1GalT1^T43-Q388 [1]; [5]) was “Not measurable under our conditions” and the “n (stoichiometry of binding)” value (DmC1GalT1^T43-Q388 [1]; [5]) was “Not measurable under our conditions”. For the same substance, the ΔG (DmC1GalT1^T43-Q388 [1]; [5]) was “Not measurable under our conditions”, the ΔH (DmC1GalT1^T43-Q388 [1]; [5]) was “Not measurable under our conditions” and the “binding by ITC” value (DmC1GalT1^T43-Q388 [1]; presence of an excess of UDP) was “no binding”. The “STD response” value (DmC1GalT1^T43-Q388 [2]) was “did not display STD response”, the “activity as acceptor substrate” value (DmC1GalT1^T43-Q388 [3]) was “inactive” and the Km app (DmC1GalT1^T43-Q388 [3]; acceptor substrate varied (P1–P7 12.5–500 µM; APDT*RP/APDS*RP 12.5–1000 µM; α-O-methyl-GalNAc up to 2 mM), 500 nM enzyme, 25 mM Tris pH 7.5, 150 mM NaCl, 50 µM MnCl2, 1 mg/ml BSA, 30 min 37 °C, Michaelis–Menten fit ± standard error, n = 2) was “not active”. For the same substance, the kcat app (DmC1GalT1^T43-Q388 [3]; acceptor varied, 500 nM enzyme, pH 7.5, 30 min 37 °C, Michaelis–Menten fit ± standard error, n = 2) was “not active”, the “kcat app/Km app (catalytic efficiency)” value (DmC1GalT1^T43-Q388 [3]; acceptor varied, 500 nM enzyme, pH 7.5, 30 min 37 °C, ± standard error, n = 2) was “not active” and the Km (DmC1GalT1^T43-Q388 [3]; read-out: Km app, acceptor substrate varied (P1–P7 12.5–500 µM; APDT*RP/APDS*RP 12.5–1000 µM; α-O-methyl-GalNAc up to 2 mM), 500 nM enzyme, 25 mM Tris pH 7.5, 150 mM NaCl, 50 µM MnCl2, 1 mg/ml BSA, 30 min 37 °C, Michaelis–Menten fit ± standard error, n = 2) was about 50 µM.

With R152A: DmC1GalT1 Ala mutant of Arg152 the “decrease in activity with respect to the WT” value (“decrease in activity” below) [4] was 15 fold.

With W300A: DmC1GalT1 Ala mutant of Trp300 the “activity of the mutant” value [4] was “inactive”.

In the case of Y213A: DmC1GalT1 Ala mutant of Tyr213, the “decrease in activity” value [4] is reported as 25 fold.

In the case of Y218A: DmC1GalT1 Ala mutant of Tyr218, the “activity of the mutant” value [4] is reported as “inactive”.

For Y325A: DmC1GalT1 Ala mutant of Tyr325, the “decrease in activity” value [4] was 25 fold.
